In patent US12581252B2, “Substituted pyrrolo[3,4-b]pyridines as PI3K-α inhibitors” (Relay Therapeutics, Inc., priority 2020, dated 2026):

Columns and labels:
cells = settings: Homo sapiens, MCF-10A, read-out: MCF10A IC50
H1047R PIK3CA enzyme = H1047R PIK3CA enzyme (Homo sapiens, UniProt P42336, H1047R); experiment: ADP-Glo Biochemical PIK3CA Kinase Assay
Chain of H1047R PIK3CA enzyme (P42336 whole entry H1047R): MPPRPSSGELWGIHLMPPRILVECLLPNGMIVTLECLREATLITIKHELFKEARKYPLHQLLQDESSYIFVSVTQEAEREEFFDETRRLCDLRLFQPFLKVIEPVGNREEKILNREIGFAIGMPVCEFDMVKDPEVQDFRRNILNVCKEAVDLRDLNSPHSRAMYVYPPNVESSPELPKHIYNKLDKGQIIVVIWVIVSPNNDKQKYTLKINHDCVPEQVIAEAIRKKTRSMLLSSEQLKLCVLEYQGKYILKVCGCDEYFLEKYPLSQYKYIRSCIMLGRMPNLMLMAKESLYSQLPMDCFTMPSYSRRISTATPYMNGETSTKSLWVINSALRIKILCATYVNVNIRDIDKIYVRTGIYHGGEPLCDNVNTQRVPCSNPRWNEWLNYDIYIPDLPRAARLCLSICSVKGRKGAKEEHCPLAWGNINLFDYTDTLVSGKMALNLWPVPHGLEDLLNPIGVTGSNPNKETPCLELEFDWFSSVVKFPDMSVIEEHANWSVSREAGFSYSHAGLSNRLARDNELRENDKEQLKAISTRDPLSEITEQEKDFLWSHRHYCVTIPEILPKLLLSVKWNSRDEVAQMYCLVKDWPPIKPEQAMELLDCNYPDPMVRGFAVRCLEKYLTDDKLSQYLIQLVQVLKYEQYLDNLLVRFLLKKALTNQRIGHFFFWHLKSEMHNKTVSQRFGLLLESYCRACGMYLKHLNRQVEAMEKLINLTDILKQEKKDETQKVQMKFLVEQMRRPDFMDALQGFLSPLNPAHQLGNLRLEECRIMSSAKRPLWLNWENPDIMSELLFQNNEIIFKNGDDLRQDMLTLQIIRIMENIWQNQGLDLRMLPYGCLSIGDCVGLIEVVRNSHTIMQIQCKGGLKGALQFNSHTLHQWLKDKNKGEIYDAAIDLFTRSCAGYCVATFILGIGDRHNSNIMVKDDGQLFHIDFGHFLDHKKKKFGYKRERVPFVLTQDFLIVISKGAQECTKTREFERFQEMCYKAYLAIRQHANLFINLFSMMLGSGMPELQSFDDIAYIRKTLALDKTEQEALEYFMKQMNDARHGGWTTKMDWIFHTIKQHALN
Chain of H1047R PIK3CA enzyme (P27986 whole entry partner): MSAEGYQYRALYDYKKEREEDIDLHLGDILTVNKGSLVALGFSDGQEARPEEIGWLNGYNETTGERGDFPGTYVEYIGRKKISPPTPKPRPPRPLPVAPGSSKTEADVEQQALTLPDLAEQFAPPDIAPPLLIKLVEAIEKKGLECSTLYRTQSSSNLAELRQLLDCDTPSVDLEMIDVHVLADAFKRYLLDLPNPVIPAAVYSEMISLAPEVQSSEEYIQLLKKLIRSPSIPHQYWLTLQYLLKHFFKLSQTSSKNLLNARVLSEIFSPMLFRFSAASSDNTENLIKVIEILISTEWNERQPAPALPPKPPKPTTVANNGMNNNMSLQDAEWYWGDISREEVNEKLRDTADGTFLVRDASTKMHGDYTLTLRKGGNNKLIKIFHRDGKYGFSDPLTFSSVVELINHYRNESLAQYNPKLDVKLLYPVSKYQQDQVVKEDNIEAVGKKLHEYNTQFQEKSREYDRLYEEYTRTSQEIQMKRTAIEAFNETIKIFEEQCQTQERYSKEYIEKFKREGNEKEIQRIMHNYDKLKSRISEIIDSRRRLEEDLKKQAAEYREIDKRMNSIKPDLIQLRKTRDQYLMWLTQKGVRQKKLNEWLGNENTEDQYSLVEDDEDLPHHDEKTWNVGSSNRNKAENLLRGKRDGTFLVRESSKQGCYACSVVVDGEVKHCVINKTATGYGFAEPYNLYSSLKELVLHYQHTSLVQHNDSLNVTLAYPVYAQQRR

| SMILES | IC50 (H1047R PIK3CA enzyme) [nM] | IC50 (cells) [nM] |
| --- | --- | --- |
| N#Cc1c(-c2cc(NC(=O)c3cc(F)cc(C(F)(F)F)c3)c3c(c2)C(=O)N[C@@H]3c2cc(F)ccc2Cl)ccc2ncnn12 (single isomer, unassigned) [Compound I-1647] |  | 1000 to 5000 |
| N#Cc1c(-c2cc(NC(=O)c3cc(F)cc(C(F)(F)F)c3)c3c(c2)C(=O)N[C@H]3c2cc(F)ccc2Cl)ccc2ncnn12 (single isomer, unassigned) [Compound I-1648] |  | < 1000 |
| O=C(Nc1cc(NC(=O)c2cc(F)cc(C(F)(F)F)c2)c2c(c1)C(=O)N[C@@H]2c1cc(F)ccc1Cl)c1cccnc1 (racemic) [Compound I-1478] | 100 to 500 |  |
| O=C(CCC(F)F)Nc1cc(NC(=O)c2cc(F)cc(C(F)(F)F)c2)c2c(c1)C(=O)NC2c1cc(F)ccc1Cl (stereo not drawn) [Compound I-360] | ≤ 100 |  |
| O=C(Nc1cccc2c1C(c1ccc(Br)cc1Cl)NC2=O)c1cc(F)cc(C(F)(F)F)c1 (stereo not drawn) [Compound I-409] | 1000 to 10000 |  |
| CC(C)(C#N)c1cc(NC(=O)c2cc(F)cc(C(F)(F)F)c2)c2c(c1)C(=O)NC2c1cc(F)ccc1Cl (stereo not drawn) [Compound I-1268] | ≤ 100 |  |
| COc1c(F)cc(Cl)cc1C(=O)Nc1cc(Br)cc2c1C(c1cc(F)ccc1Cl)NC2=O (stereo not drawn) [Compound I-858] | 1000 to 10000 |  |
| CC(C)(O)c1cc(NC(=O)c2cc(F)cc(C(F)(F)F)c2)c2c(n1)C(=O)N[C@H]2c1cc(F)ccc1Cl [Compound I-272] | 100 to 500 |  |
| O=C(Nc1cccc2c1C(C1=C(F)CCCC1)NC2=O)c1cc(F)cc(C(F)(F)F)c1 (racemic) [Compound I-1790] | 500 to 1000 |  |
| CC(C)(C)CCC1NC(=O)c2cccc(NC(=O)c3cc(F)cc(C(F)(F)F)c3)c21 (stereo not drawn) [Compound I-2196] | 1000 to 10000 |  |
| O=C(Nc1cc(-c2ncc[nH]2)cc2c1C(c1cc(F)ccc1Cl)NC2=O)c1cc(F)cc(C(F)(F)F)c1 (stereo not drawn) [Compound I-712] | ≤ 100 |  |
| O=C(Nc1cccc2c1C(C1CCCCC1O)NC2=O)c1cc(F)cc(C(F)(F)F)c1 (stereo not drawn) [Compound I-2060] | 10000 to 100000 |  |
| O=C(Nc1cc(-c2ccnn2CCO)cc2c1C(c1cc(F)ccc1Cl)NC2=O)c1cc(F)cc(C(F)(F)F)c1 (stereo not drawn) [Compound I-1340] | ≤ 100 |  |
| O=C(Nc1cc(CC(O)CCO)cc2c1C(c1cc(F)ccc1Cl)NC2=O)c1cc(F)cc(C(F)(F)F)c1 (stereo not drawn) [Compound I-1463] | ≤ 100 |  |
| O=C(Nc1cc(-c2ccc3nccn3n2)cc2c1[C@H](c1cc(F)ccc1Cl)NC2=O)c1cc(F)cc(C(F)(F)F)c1 [Compound I-1332] | ≤ 100 |  |
| O=C(Nc1cncc2c1C(c1cc(F)ccc1Cl)NC2=O)c1cc(F)cc(C(F)(F)F)c1 (stereo not drawn) [Compound I-553] | ≤ 100 |  |
| CC(C)(O)c1cc(NC(=O)c2cc(F)cc(C(F)(F)F)c2)c2c(n1)C(=O)NC2c1cc(F)ccc1Cl (stereo not drawn) [Compound I-242] | 100 to 500 |  |
| CNC(=O)c1ncc(-c2cc(NC(=O)c3cc(F)cc(C(F)(F)F)c3)c3c(c2)C(=O)NC3c2cc(F)ccc2Cl)cn1 (stereo not drawn) [Compound I-1506] | 100 to 500 |  |
| O=C1NC(c2cc(F)ccc2Cl)c2c1cccc2-c1nc2c(C(F)(F)F)cc(F)cc2[nH]1 (stereo not drawn) [Compound I-842] | 100 to 500 |  |
| O=C(Nc1cc(C2(O)COC2)cc2c1C(c1cc(F)ccc1Cl)NC2=O)c1cc(F)cc(C(F)(F)F)c1 (stereo not drawn) [Compound I-1281] | ≤ 100 |  |
| CS(=O)(=O)Cc1cc(NC(=O)c2cc(F)cc(C(F)(F)F)c2)c2c(n1)C(=O)NC2c1cc(F)ccc1Cl (stereo not drawn) [Compound I-1644] | ≤ 100 |  |

| SMILES | IC50 (H1047R PIK3CA enzyme) [nM] | IC50 (cells) [nM] |
| --- | --- | --- |
| O=C(Nc1cc(N2CC3(CCN3)C2)cc2c1C(c1cc(F)ccc1Cl)NC2=O)c1cc(F)cc(C(F)(F)F)c1 (stereo not drawn) [Compound I-1388] | 100 to 500 |  |
| O=C(Nc1cc(-c2ccc3nc(Cl)cn3c2)cc2c1C(c1cc(F)ccc1Cl)NC2=O)c1cc(F)cc(C(F)(F)F)c1 (stereo not drawn) [Compound I-1696] | ≤ 100 |  |
| CC(=O)N1CCC(C2NC(=O)c3cccc(NC(=O)c4cc(F)cc(C(F)(F)F)c4)c32)CC1 (stereo not drawn) [Compound I-1818] | 10000 to 100000 |  |
| Cn1ccc2c(F)cc(C(=O)Nc3cc(Br)cc4c3C(c3cc(F)ccc3Cl)NC4=O)cc21 (stereo not drawn) [Compound I-1005] | 1000 to 10000 |  |
| O=C(Nc1cc(-c2ccc3ncnn3n2)cc2c1[C@H](c1cc(F)ccc1Cl)NC2=O)c1cc(F)cc(C(F)(F)F)c1 [Compound I-1650] | ≤ 100 |  |
| O=C1NC(c2cc(F)ccc2Cl)c2c(NC(=O)N3CC4CCC4(C(F)(F)F)C3)cc(Br)cc21 (stereo not drawn) [Compound I-1754] | 1000 to 10000 |  |
| N#Cc1cnc2cnc(-c3cc(NC(=O)c4cc(F)cc(C(F)(F)F)c4)c4c(c3)C(=O)N[C@@H]4c3cc(F)ccc3Cl)cn12 [Compound I-1922] | 1000 to 10000 |  |
| N#Cc1nn(C(F)F)cc1-c1cc(NC(=O)c2cc(F)cc(C(F)(F)F)c2)c2c(c1)C(=O)N[C@H]2c1cc(F)ccc1Cl [Compound I-1890] | ≤ 100 |  |
| O=C(Nc1cc(Oc2ccccn2)cc2c1C(c1cc(F)ccc1Cl)NC2=O)c1cc(F)cc(C(F)(F)F)c1 (stereo not drawn) [Compound I-1077] | 100 to 500 |  |
| CN1CCN(C(=O)Nc2cc(Br)cc3c2C(c2cc(F)ccc2Cl)NC3=O)CC1(C)C (racemic) [Compound I-685] | 10000 to 100000 |  |
| O=C(Nc1cc(-c2ccc3ncnn3c2)nc2c1C(c1cc(F)ccc1Cl)NC2=O)c1cc(F)cc(C(F)(F)F)c1 (stereo not drawn) [Compound I-1226] | ≤ 100 |  |
| O=C1NC(c2cc(F)ccc2Cl)c2c(Br)cc(-c3ccc4ncnn4c3)cc21 (stereo not drawn) [Compound I-1672] | 10000 to 100000 |  |
| O=C(Nc1cc(NC(=O)c2cc(F)cc(C(F)(F)F)c2)c2c(c1)C(=O)N[C@H]2c1cc(F)ccc1Cl)c1cccnc1 [Compound I-1477] | ≤ 100 |  |
| O=C(Nc1cc(Br)cc2c1C(c1cc(Cl)cc(F)c1F)NC2=O)c1cc(F)cc(C(F)(F)F)c1 (stereo not drawn) [Compound I-785] | ≤ 100 |  |
| O=C(Nc1cc(NC(=O)C(F)F)cc2c1C(c1cc(F)ccc1Cl)NC2=O)c1cc(F)cc(C(F)(F)F)c1 (stereo not drawn) [Compound I-467] | ≤ 100 |  |
| N#Cc1cnn2ccc(-c3cc(NC(=O)c4cc(F)cc(C(F)(F)F)c4)c4c(c3)C(=O)N[C@H]4c3cc(F)ccc3Cl)cc12 [Compound I-1799] | ≤ 100 |  |
| CNc1cc(NC(=O)N2C[C@](O)(C(F)(F)F)c3cc(F)ccc32)c2c(c1C#N)C(=O)N[C@H]2c1cc(F)ccc1Cl (single isomer, unassigned) [Compound I-2608] | 1000 to 10000 |  |
| O=C(Nc1cccc2c1[C@H]([C@@H]1CCCC(F)(F)C1)NC2=O)c1cc(F)cc(C(F)(F)F)c1 [Compound I-1752] | 1000 to 10000 |  |
| O=C1NC(c2cc(F)ccc2Cl)c2c(Nc3cccc4ccccc34)cc(Br)cc21 (stereo not drawn) [Compound I-1682] | 1000 to 10000 |  |
| CNc1cc(NC(=O)N2C[C@@](O)(C(F)(F)F)c3cc(F)ccc32)c2c(c1C#N)C(=O)N[C@H]2c1cc(F)ccc1Cl (single isomer, unassigned) [Compound I-2606] | 1000 to 10000 |  |

Now from value to compound, other results behind:

| IC50 (H1047R PIK3CA enzyme) [nM] | SMILES | IC50 (cells) [nM] |
| --- | --- | --- |
| 100 to 500 | N#Cc1cc(NC(=O)N2C[C@@H](O)c3cc(F)ccc32)c2c(c1)C(=O)N[C@H]2c1cc(F)ccc1Cl (single isomer, unassigned) [Compound I-2493] |  |
| 100 to 500 | O=C1N[C@@H](c2cc(F)ccc2Cl)c2c(NC(=O)N3C[C@H](O)c4cc(F)ccc43)cc(-c3cnn(C(F)F)c3)cc21 (single isomer, unassigned) [Compound I-2478] |  |
| 10000 to 100000 | O=C1NC(c2cc(F)ccc2Cl)c2c(Nc3n[nH]c4ccccc34)cc(Br)cc21 (stereo not drawn) [Compound I-1315] |  |
| 10000 to 100000 | Cn1ccc2c(C(=O)Nc3cc(Br)cc4c3C(c3cc(F)ccc3Cl)NC4=O)ccnc21 (stereo not drawn) [Compound I-636] |  |
| 1000 to 10000 | O=C1NC(c2cc(F)ccc2Cl)c2c(NC(=O)c3ncsc3Br)cccc21 (stereo not drawn) [Compound I-2397] |  |
| 500 to 1000 | Cc1ccccc1[C@@H]1NC(=O)c2nccc(NC(=O)N3CCc4c(F)cc(F)cc43)c21 [Compound I-229] |  |
| 10000 to 100000 | Cc1cn(-c2cc(NC(=O)N3C[C@](O)(C(F)(F)F)c4cc(F)ccc43)c3c(c2)C(=O)N[C@H]3c2cc(F)ccc2Cl)cn1 (single isomer, unassigned) [Compound I-2639] |  |
| 500 to 1000 | CC(C)(O)c1cc(NC(=O)N2C[C@H](O)c3ccccc32)c2c(c1)C(=O)N[C@H]2c1cc(F)ccc1Cl (single isomer, unassigned) [Compound I-2123] |  |
| 10000 to 100000 | O=C(Nc1cccc2c1C(c1ccccc1C1COC1)NC2=O)c1cc(F)cc(C(F)(F)F)c1 (stereo not drawn) [Compound I-907] |  |
| 10000 to 100000 | N#CC1(C(=O)Nc2cc(-c3ccc4ncnn4c3)cc3c2C(c2cc(F)ccc2Cl)NC3=O)CCCC1 (stereo not drawn) [Compound I-1899] |  |
| 10000 to 100000 | CC(C)C1CCN(C(=O)Nc2cccc3c2C(c2cc(F)ccc2Cl)NC3=O)C1 (mixture of isomers) [Compound I-2419] |  |
| 500 to 1000 | Cc1nn(C)c(C)c1-c1cc(NC(=O)c2cc(F)cc(Cl)c2)c2c(n1)C(=O)NC2c1cc(F)ccc1Cl (stereo not drawn) [Compound I-410] |  |
| 1000 to 10000 | CC1(C)CCc2scc(C(=O)Nc3cccc4c3C(c3cc(F)ccc3Cl)NC4=O)c2C1 (stereo not drawn) [Compound I-2235] |  |
| 10000 to 100000 | O=C(Nc1cccc2c1C(c1ccnc(Cl)c1)NC2=O)c1cc(F)cc(C(F)(F)F)c1 (stereo not drawn) [Compound I-630] |  |
| 1000 to 10000 | N#CC(C(=O)Nc1cc(-c2ccc3ncnn3c2)cc2c1C(c1cc(F)ccc1Cl)NC2=O)c1ccccc1 (stereo not drawn) [Compound I-1834] |  |
| 10000 to 100000 | O=C1NC(c2cc(F)ccc2Cl)c2c(NC(=O)N3CC(CO)C(C(F)(F)F)C3)cccc21 (stereo not drawn) [Compound I-2181] |  |
| 1000 to 10000 | O=C(Nc1ccnc2c1C(c1cccc(F)c1F)NC2=O)c1cc(F)cc(Cl)c1 (stereo not drawn) [Compound I-173] |  |
| 10000 to 100000 | C[C@@H](O)c1cc(-c2ccc3ncnn3c2)cc2c1[C@H](c1cc(F)ccc1Cl)NC2=O (single isomer, unassigned) [Compound I-2231] |  |
| 10000 to 100000 | Cc1ccccc1C1NC(=O)c2nccc(NC(=O)N3CCc4ccncc43)c21 (stereo not drawn) [Compound I-251] |  |
| 10000 to 100000 | O=C1NC(c2cc(F)ccc2Cl)c2c(NC(=O)[C@H]3C[C@@H](O)c4ccccc43)cc(Br)cc21 (mixture of isomers) [Compound I-1942] |  |
| 1000 to 10000 | O=C1N[C@H](c2cc(F)ccc2Cl)c2c(NC(=O)N3C[C@](O)(C(F)(F)F)c4cc(F)ccc43)cc(-n3ncccc3=O)cc21 (single isomer, unassigned) [Compound I-2535] |  |
| 1000 to 10000 | C[C@]1(O)CN(C(=O)Nc2cc(Br)cc3c2C(c2cc(F)ccc2Cl)NC3=O)c2ccccc21 (single isomer, unassigned) [Compound I-1508] |  |
